# Measurements: patent publication US9801373B2, “Compounds for alleviating phosphate starvation symptoms in plants” (Commissariat a l'Energie Atomique et aux Energies …, priority 2012, dated 2017)
# Assays:
# Format in all cases: in vivo, Arabidopsis thaliana
# PHT1;4 expression = test: Chemical genetics screen, GUS staining of pht1;4-1 reporter line
# Excerpt: (§1) A “chemical genetics” approach has been carried out to isolate compounds that inhibit the phosphate (Pi) response in Arabidopsis thaliana. Compounds were screened for their ability to inhibit the expression of a phosphate starvation marker, namely the high affinity Pi transporter PHT1,4 gene. For the screening, the A. thaliana pht1;4-1 line (ecotype Wassilewskija) was chosen (Misson et al., 2004). It contains a T-DNA construct inserted into Pht1;4 gene creating a transcriptional fusion with a GUS reporter gene. For phenotypic analyses, A. thaliana Columbia and various lines derived from this ecotype were used. They are either transgenic lines expressing reporter gene as cycB1::GUS (Colón Carmona et al., 1999), MGD3::LUC, PHT1;4::LUC, At1g73010::LUC or various mutants affecting root response to low Pi such as: pdr2 (Ticconi et al., 2004), lpr1, lpr2 (Svistoonoff et al., 2007), lpi1, lpi2 and lpi3 (Sanchez-Calderon et al., 2006).
# For the screening, the LATCA collection of 3600 biologically active compounds (Zhao et al., 2007) was used at a final concentration of 25 μM in 1% DMSO. Four to five Arabidopsis seeds of pht1;4-1 (Misson et al., 2004) reporter line were sown in 96-well plates containing 100 μL liquid MS/10 medium with 500 μM of Pi at pH 5.7. After 2 days at 4° C., plants were grown for five days in a culture chamber under a 16 h light/8 h dark regime (24/21° C., 150 μE m^−2s^−1). Medium was then replaced by MS/10 with only 5 μM Pi and the tested compounds were added to the 96-well plates. […] Five days later, plantlets were analysed by GUS staining to assay the activity of the reporter gene inserted in pht1;4 gene. […] Then, plates were analysed using a MZ16 stereomicroscope (Leica microsystems, Germany).
# The GUS activity was detected as previously described by Jefferson et al. (1987), using a GUS staining solution containing 50 mM sodium phosphate buffer pH 7.0; 0.01% Triton X-100, 1 mM K3Fe(CN)6, 1 mM K4Fe(CN)6, 1 mg/ml 5-bromo-4-chloro-3-indolyl B-D-glucuronide (X-Gluc). […]
# wild-type (WT) seedlings = test: Primary root growth of wild-type seedlings; conditions: for activity of PTN1 analogues (inhibitor activity of PHT1;4 expression and effect on the growth): WT seedlings, FIG. 6; for concentration at which active on primary root growth: −Pi
# Procedure: (§2) In the Pi deficient medium, NaCl (0.5 mM) was used to replace the equivalent amount of sodium provided by NaH2PO4. For controls of the effects of the compounds, 1% of DMSO (Dimethyl sulfoxid, SIGMA, 472301), solvent for the tested compounds, was added. After 2 days at 4° C., the plates were placed in a vertical position and plants were grown in a culture chamber under a 16 h light/8 h dark regime (24/21° C., 150 μE m^−2s^−1). For 4 weeks culture, large plates (24×24 cm) were placed in a horizontal position. Root architecture and aerial part area were quantified using program ImageJ.
# PHT1 genes (PHT1;4) = test: qPCR of PHT1 transcript level on root mRNA; conditions: qPCR on root mRNA, FIG. 2 (B)
# Procedure: Plant RNA was extracted with the RNeasy kit (QIAGEN, France). For transcriptome data, RNA were analysed by the CATMA technology (Complete Arabidopsis Transcriptome Microarray). For qPCR, poly(dT) cDNA were prepared from 500 ng total RNA with Superscript III reverse transcriptase (Invitrogen, France) and analysed on a LightCycler 480 apparatus (Roche Diagnostics, France) with the SYBR Green I Master kit (Roche Diagnostics, France) according to the manufacturer's instructions. Targets were quantified with specific primer pairs designed with Primer3 website (http://frodo.wi.mit.edu/primer3/) (see Table II below). Biological triplicates were performed for all experiments. Expression levels were normalized using At2g16600, At3g04120, At1g35160 and At1g32050 genes.
# [1] = system: lpr1, lpr2 and lpi mutants; test: Primary root growth of mutants with reduced root sensitivity to Pi starvation; conditions: 7-days-old plants, PTN1 40 μM, FIG. 8
# Excerpt: as §1
# In the Pi deficient medium, NaCl (0.5 mM) was used to replace the equivalent amount of sodium provided by NaH2PO4. For controls of the effects of the compounds, 1% of DMSO (Dimethyl sulfoxid, SIGMA, 472301), solvent for the tested compounds, was added. […] Root architecture and aerial part area were quantified using program ImageJ.
# lpr1 mutant = test: Shoot growth of lpr1 mutant; conditions: −Pi, 28-days-old plants
# Procedure: as §2
SMILES,PHT1;4 expression (analogue test) (PHT1;4 expression; 100 μM),activity of PTN1 analogues (inhibitor activity of PHT1;4 expression and effect on the growth) (wild-type (WT) seedlings),"primary root growth on −Pi (wild-type (WT) seedlings; WT, 7-day-old plantlets, FIG. 7 (A))",concentration at which active on primary root growth (wild-type (WT) seedlings; FIG. 7 (A)) [µM],"toxicity as cause of reduced reporter gene expression (PHT1;4 expression; 25 μM, 5 days on −Pi)",effect on PHT1;4 transcript level (PHT1 genes (PHT1;4)),"primary root growth at various external Pi concentrations (15-250 uM) (wild-type (WT) seedlings; 10 uM, 5 days on Pi rich medium then 24 hours on tested conditions, FIG. 7 (D))",primary root growth of lpr1 or lpi mutants [1],growth of the lpr1 rosette (lpr1 mutant)
"Sc1ccc(Cl)cc1 [PTN3, 4-chlorothiophenol]",repressed PHT1;4 expression,Active,sustained also the primary root growth,100,–,–,–,–,–
CS(=O)(=O)C1=C2C=CCCC2=C(C(=O)Sc2ccc(Cl)cc2)C1 [PTN2],–,–,–,–,not explained by toxicity,dose dependant manner,–,–,–
Clc1ccc(SSc2ccc(Cl)cc2)cc1 [PTN4],–,Active,–,10,–,–,improved root growth until 50/75 μM of Pi,no additive effect,+25%
